The term IC50 denotes the point on the concentration scale where inhibition reaches its midpoint. A higher IC50 goes with weaker potency in that assay.

SMILES strings stand for the structures. Read-outs that look alike come from different tables or passages of the source. Where a SMILES comes first, the peptide text is derived from it. The star is where a group is joined. Cbz = O=C(OCc1ccccc1)*

From patent US7476650B2, “Enzyme inhibition” (Yale University, priority 1999, dated 2009) come the findings set out here.

Assay [1] concerns the target T1, trypsin-like activity of purified bovine erythrocyte 20S proteasome (Bos taurus, UniProt Q2TBP0).
T1 construct: from tissue; host or cells: bovine erythrocytes (red blood cells)
Put plainly: Enzyme kinetic assay, trypsin-like activity (Boc-LRR-AMC). It is filed as biochemical. Conditions: for kassoc = kobs/[I] Trypsin-like activity: Table 2, inhibitor concentration range in the line below. From the text: (§1) We investigated the potency of inhibitors of various length. Mono-, di-,tri- and tetraleucine α′,β′-epoxides were ranked by determination of the kobs/[I] values for inhibition of the chymotrypsin-like, trypsin-like, and PGPH activities of purified bovine erythrocyte 20S proteasome.
(§2) Purified bovine erythrocyte proteasome was enzymatically assayed using a variety of different substrates and inhibitors. In order to evaluate the rates of proteolytic inactivation by inhibitors, kassociation (kobs/[I]) values were determined using fluorogenic peptide substrates over a range of inhibitor concentrations.

Assay [2] has as its target T2, chymotrypsin-like activity of purified bovine erythrocyte 20S proteasome (Bos taurus, UniProt Q32KL2).
T2 construct: from tissue; host or cells: bovine erythrocytes (red blood cells)
Put plainly: Enzyme kinetic assay, chymotrypsin-like activity (Suc-LLVY-AMC). It is filed as biochemical. The note with it: for kassoc = kobs/[I] Chymotrypsin-like activity: Table 2, inhibitor concentration range in the line below.
From the text: as §1, §2

Assay [3] deals with T3, PGPH activity of purified bovine erythrocyte 20S proteasome (Bos taurus, UniProt Q3MHN0).
T3 construct: from tissue; host or cells: bovine erythrocytes (red blood cells)
In words: Enzyme kinetic assay, PGPH activity (Z-LLE-AMC). In kind it is biochemical. The note with it: for kassoc = kobs/[I] PGPH activity: Table 2, inhibitor concentration range in the line below. The method, then: We investigated the potency of inhibitors of various length. Mono-, di-,tri- and tetraleucine α′,β′-epoxides were ranked by determination of the kobs/[I] values for inhibition of the chymotrypsin-like, trypsin-like, and PGPH activities of purified bovine erythrocyte 20S proteasome. Enzyme kinetic assays were performed as described in Example 2.
as §2

Assay [4] concerns the target cathepsin B (Homo sapiens, UniProt P07858). In words: Cathepsin B inhibition assay.
Assay [5] deals with bovine aortic endothelial (BAE) cells. Put plainly: BAE cell proliferation ([methyl-3H]-thymidine incorporation). In kind it is cell-based. Here is the method: BAE cells were cultured at 7% CO2 and were grown in DMEM supplemented with 10% FBS, 1% penicillin/streptomycin (GIBCO), and 1 mM sodium pyruvate.
Approximately 1000 BAE cells were plated into each well of a 96-well culture plate. After an overnight incubation, different concentrations of proteasome inhibitors were added and incubation was continued for another five days. […] Subsequently, 74 kBq of [methyl-^3H]-thymidine was added to each well of the plate and the plate was incubated for another additional 4 hours. Cells were harvested using a Skatron Cell Harvester and incorporated radioactivity was quantified using liquid scintillation. Proliferation of BAE cells was assayed in triplicate in the presence of different concentrations of peptide epoxides.
Perturbation of the proteasome activity can result in inhibition of cell growth, and can further lead to cell death at elevated concentration of the proteasome inhibitors. This provides an excellent cell-based assay to assess the importance of each catalytic activity of the 20S proteasome in degradation of proteins involved in cell growth. We measured inhibition of proliferation of bovine aortic endothelial (BAE) cells with our α′,β′-epoxyketone-based inhibitors with varying degree of specificity for the PGPH activity.

For assay [6], the system named is ubiquitinated proteins in Hela cells. Put plainly: α-ubiquitin immunoblot of treated Hela cells. It is filed as cell-based. Conditions: epoxomicin 10 μM, 2 hours. Here is the method:
(§3) The control experiment (Crtl) was carried out with vehicle only.

Assay [7] concerns the target T4, purified murine spleen proteasome (Mus musculus, UniProt O35955+P28063+P70195).
T4 construct: from tissue; host or cells: murine spleen
T4 sequence (P28063 73-276): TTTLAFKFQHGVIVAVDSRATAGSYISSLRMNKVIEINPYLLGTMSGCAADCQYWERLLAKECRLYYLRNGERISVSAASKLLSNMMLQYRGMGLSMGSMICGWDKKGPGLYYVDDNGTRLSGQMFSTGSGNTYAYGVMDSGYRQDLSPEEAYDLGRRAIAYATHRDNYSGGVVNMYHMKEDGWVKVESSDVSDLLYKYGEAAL
T4 sequence (O35955 40-273): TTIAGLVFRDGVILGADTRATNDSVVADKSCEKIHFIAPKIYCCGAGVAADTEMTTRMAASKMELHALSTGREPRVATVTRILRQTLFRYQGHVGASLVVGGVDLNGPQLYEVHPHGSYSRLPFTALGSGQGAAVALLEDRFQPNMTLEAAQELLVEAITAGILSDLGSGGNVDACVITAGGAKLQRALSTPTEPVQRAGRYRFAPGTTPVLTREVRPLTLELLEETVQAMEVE
T4 sequence (P70195 44-277): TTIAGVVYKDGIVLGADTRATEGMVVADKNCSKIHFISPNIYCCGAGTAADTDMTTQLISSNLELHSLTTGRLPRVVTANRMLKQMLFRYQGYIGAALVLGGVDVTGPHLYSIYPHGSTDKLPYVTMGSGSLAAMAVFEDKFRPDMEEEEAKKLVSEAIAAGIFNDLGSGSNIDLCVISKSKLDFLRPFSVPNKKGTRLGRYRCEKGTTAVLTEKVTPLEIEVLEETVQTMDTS
Put plainly: [3H]-epoxomicin binding to purified proteasome. The note with it: compared with epoxomicin-biotin.

Assay [8] concerns mice, DNFB applied to the ear. Put plainly: DNFB ear inflammation (irritant sensitivity response). Conditions: single dose one hour before DNFB, 24 hours. In kind it is in vivo. The method, then: Ear thickness was measured at 0 and 24 hours after DNFB application.
The subject of assay [9] is p53 protein levels in HUVECs. Put plainly: α-p53 immunoblot of treated HUVECs. In kind it is cell-based. The note with it: 5 μM. Here is the method: The tumor suppressor p53 is a known target of the proteasome.
as §3

Turning to `CC(C)C[C@@H](/C=C/S(C)(=O)=O)NC(=O)[C@H](CC(C)C)NC(=O)[C@H](CC(C)C)NC(=O)Cc1cc(I)c(O)c([N+](=O)[O-])c1` [NLVS, reference compound], the “kassoc = kobs/[I] Trypsin-like activity” value in assay [1] turned out to be 5.3 ± 2.8 M⁻¹ s⁻¹. Moreover, the “kassoc = kobs/[I] Chymotrypsin-like activity” value in [2] turned out to be 6790 ± 919 M⁻¹ s⁻¹. In addition, the “kassoc = kobs/[I] PGPH activity” value in assay [3] was 6.4 ± 2.3 M⁻¹ s⁻¹. Further, the “inhibition of cathepsin B enzymatic activity” value in [4] (at 10 μM) is on record as “significantly inhibited”.

On to `CC(C)C[C@H](NC(=O)[C@H](Cc1ccccc1)NC(=O)[C@@H]1CCCN1C(=O)c1cnccn1)C(=O)C1(C)CO1` (stereo partly shown) [Pyrazinecarbonyl-PFL-Ex], for which the “kobs/[I] Trypsin-like” value in assay [1] (Table 3) worked out at 3.7 ± 1.1 M⁻¹ s⁻¹. This compound also came in with an IC50 in assay [5] (Table 6, PGPH-directed inhibitors) of 0.4 µM. Moreover, the “kobs/[I] Chymotrypsin-like” value in assay [2] (Table 3) came to 520 ± 40 M⁻¹ s⁻¹. Moreover, the “kobs/[I] PGPH” value in assay [3] (Table 3) worked out at 23 ± 3 M⁻¹ s⁻¹.

With `CC(C)C[C@@H](C=O)NC(=O)[C@H](CC(C)C)NC(=O)[C@H](CC(C)C)NC(=O)OCc1ccccc1` [Z-LLL-H] (Cbz-Leu-Leu-Leu-aldehyde), the “accumulation of ubiquitinated proteins (anti-ubiquitin antibody)” value in assay [6] is “upper molecular weight bands were also observed”.

On to `[3H]C([3H])([3H])C(=O)N(C)[C@H](C(=O)N[C@H](C(=O)N[C@H](C(=O)N[C@@H](CC(C)C)C(=O)[C@@]1(C)CO1)[C@@H](C)O)[C@@H](C)CC)[C@@H](C)CC` [[^3H] epoxomicin], for which, in assay [7], the protein binding pattern result is recorded as “same protein binding pattern observed with epoxomicin-biotin”.

Take `CC(C)[C@H](O)[C@@]12NC(=O)[C@H](C)[C@@H]1OC2=O` [clasto-lactacystin β lactone, clasto-lactacystin β-lactone, reference compound]: the “kassoc = kobs/[I] Trypsin-like activity” value in [1] is 253 ± 41 M⁻¹ s⁻¹. The “kassoc = kobs/[I] Chymotrypsin-like activity” value in [2] is 8530 ± 280 M⁻¹ s⁻¹. In assay [3], the “kassoc = kobs/[I] PGPH activity” value worked out at 37 ± 4.7 M⁻¹ s⁻¹. Further, the “inhibition of cathepsin B enzymatic activity” value in [4] (at 50 μM) was “significantly inhibited”.

As to `CC(=O)N[C@@H](CCc1ccccc1)C(=O)N[C@@H](CC(C)C)C(=O)N[C@@H](Cc1ccccc1)C(=O)N[C@@H](CC(C)C)C(=O)[C@@]1(C)CO1` [compound 16], the figures for the “inhibition of ear inflammation / ear swelling over vehicle-treated controls” value in [8] (high dose 2.0 mg/kg (3.6 μmol/kg)) and in assay [8] (low dose 0.32 mg/kg (0.58 μmol/kg)) were 12 fold and “reducing ear swelling by the same amount as epoxomicin”, respectively. Further, the kinact/KI in [1] (pH 8, Table 4, inhibitor concentration range in parentheses, read-out: kassoc = kobs/[I] Trypsin-like activity) worked out at 7.1 M⁻¹ s⁻¹; in [2] (pH 8, read-out: kobs/[I] for chymotryptic-like activity using Suc-LLVY-AMC) it was 183000 M⁻¹ s⁻¹; in [2] (pH 8, Table 4, inhibitor concentration range in parentheses, read-out: kassoc = kobs/[I] Chymotrypsin-like activity), 166000 M⁻¹ s⁻¹; in assay [3] (pH 8, Table 4, inhibitor concentration range in parentheses, read-out: kassoc = kobs/[I] PGPH activity), 21 M⁻¹ s⁻¹. This compound gave an IC50 in assay [5] (Bos taurus, 120 h, Table 5, five days incubation) of 0.02 µM.

As for `CC(=O)N[C@@H](CSC(=O)[C@]1([C@@H](O)C(C)C)NC(=O)[C@H](C)[C@@H]1O)C(=O)O` [lactacystin], the “increase of p53 levels over untreated cells” value in assay [9] came out at 10 fold.
